Test results reported in PubChem BioAssay (NCI).
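48-hour exposure; five concentrations; linearly interpolated endpoints. GI50: concentration for 50% inhibition of growth. At the TGI there is no net growth.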

Columns and labels:
Experiment in all cases: growth of human tumour cells (NCI), 48 h; in the data active = GI50 below about 0.43 µM; inactive = the rest
[1] = tested on: M14 melanoma
[2] = tested on: T-47D breast
[3] = tested on: CAKI-1 renal
[4] = tested on: U251 CNS
[5] = tested on: A549 NSCLC
[6] = tested on: RXF 393 renal
[7] = tested on: OVCAR-8 ovarian
[8] = tested on: SNB-19 CNS
[9] = tested on: UO-31 renal
[10] = tested on: OVCAR-3 ovarian
[11] = tested on: HT29 colon
[12] = tested on: TK-10 renal
[13] = tested on: OVCAR-5 ovarian
[14] = tested on: K-562 leukemia
[15] = tested on: UACC-257 melanoma
[16] = tested on: MDA-MB-435
[17] = tested on: COLO 205 colon
[18] = tested on: NCI-H522 lung
[19] = tested on: SK-MEL-28 melanoma
[20] = tested on: PC-3 prostate
[21] = tested on: HOP-92 NSCLC
[22] = tested on: NCI-H226 lung
[23] = tested on: KM12 colon
[24] = tested on: NCI/ADR-RES ovarian
[25] = tested on: HCT-116 colon
[26] = tested on: EKVX NSCLC
[27] = tested on: MOLT-4 leukemia
[28] = tested on: SK-OV-3 ovarian
[29] = tested on: 786-0 renal
[30] = tested on: SK-MEL-2 melanoma
[31] = tested on: IGROV1 ovarian
[32] = tested on: A498 renal
[33] = tested on: SF-539 CNS
[34] = tested on: OVCAR-4 ovarian
[35] = tested on: MCF7 breast
[36] = tested on: SF-295 CNS
[37] = tested on: SN12C renal
[38] = tested on: LOX IMVI melanoma
[39] = tested on: BT-549 breast
[40] = tested on: MDA-MB-231 breast
[41] = tested on: DU-145 prostate
[42] = tested on: SW-620 colon
[43] = tested on: ACHN renal
[44] = tested on: HL-60(TB) leukemia
[45] = tested on: HS 578T breast
[46] = tested on: SK-MEL-5 melanoma
[47] = tested on: HCC-2998 colon
[48] = tested on: CCRF-CEM leukemia
[49] = tested on: NCI-H460 lung
[50] = tested on: MALME-3M melanoma
[51] = tested on: HCT-15 colon
[52] = tested on: NCI-H23 lung
[53] = tested on: UACC-62 melanoma
[54] = tested on: SF-268 CNS
[55] = tested on: HOP-62 NSCLC
[56] = tested on: SNB-75 CNS
[57] = tested on: RPMI-8226 leukemia

N#CC(NCCc1ccccc1)c1ccc(C(C#N)NCCc2ccccc2)cc1 (stereo unspecified)
40.8 µM: TGI [44]
65.7 µM: TGI [48]
70.6 µM: TGI [14]
57.5 µM: TGI [24]
> 100 µM: TGI [1] | TGI [2] | TGI [3] | TGI [4] | TGI [5] | TGI [6] | TGI [7] | TGI [8] | TGI [9] | TGI [10] | TGI [11] | TGI [12] | TGI [13] | TGI [15] | TGI [16] | TGI [17] | TGI [18] | TGI [19] | TGI [20] | TGI [21] | TGI [22] | TGI [23] | TGI [25] | TGI [26] | TGI [27] | TGI [28] | TGI [29] | TGI [30] | TGI [31] | TGI [32] | TGI [33] | TGI [34] | TGI [35] | TGI [36] | TGI [37] | TGI [38] | TGI [40] | TGI [41] | TGI [42] | TGI [43] | TGI [45] | TGI [46] | TGI [47] | TGI [49] | TGI [50] | TGI [51] | TGI [52] | TGI [53] | TGI [54]
56.1 µM: TGI [39]

Cn1cc(C2=C(n3ccc4ccccc43)C(=O)NC2=O)c2ccccc21
inactive: GI50 [1] > 25 µM | GI50 [2] > 25 µM | GI50 [3] > 25 µM | GI50 [4] > 25 µM | GI50 [5] > 25 µM | GI50 [6] > 25 µM | GI50 [7] > 25 µM | GI50 [8] > 25 µM | GI50 [9] > 21.6 µM | GI50 [10] > 25 µM | GI50 [11] > 25 µM | GI50 [12] > 25 µM | GI50 [13] > 25 µM | GI50 [14] > 25 µM | GI50 [15] > 25 µM | GI50 [16] > 25 µM | GI50 [17] > 25 µM | GI50 [18] > 25 µM | GI50 [19] > 25 µM | GI50 [20] > 25 µM | GI50 [55] > 25 µM | GI50 [22] > 25 µM | GI50 [23] > 25 µM | GI50 [24] > 25 µM | GI50 [25] > 25 µM | GI50 [56] > 9.34 µM | GI50 [27] > 25 µM | GI50 [28] > 25 µM | GI50 [29] > 25 µM | GI50 [30] > 25 µM | GI50 [31] > 25 µM | GI50 [32] > 25 µM | GI50 [33] > 25 µM | GI50 [57] > 25 µM | GI50 [34] > 25 µM | GI50 [35] > 25 µM | GI50 [36] > 25 µM | GI50 [37] > 25 µM | GI50 [38] > 25 µM | GI50 [39] > 25 µM | GI50 [40] > 25 µM | GI50 [41] > 25 µM | GI50 [42] > 25 µM | GI50 [43] > 25 µM | GI50 [44] > 25 µM | GI50 [45] > 25 µM | GI50 [46] > 25 µM | GI50 [47] > 25 µM | GI50 [48] > 25 µM | GI50 [49] > 25 µM | GI50 [50] > 25 µM | GI50 [51] > 25 µM | GI50 [52] > 25 µM | GI50 [53] > 25 µM | GI50 [54] > 25 µM
> 25 µM: TGI [1] | TGI [2] | TGI [3] | TGI [4] | TGI [5] | TGI [6] | TGI [7] | TGI [8] | TGI [9] | TGI [10] | TGI [11] | TGI [12] | TGI [13] | TGI [14] | TGI [15] | TGI [16] | TGI [17] | TGI [18] | TGI [19] | TGI [20] | TGI [55] | TGI [22] | TGI [23] | TGI [24] | TGI [25] | TGI [56] | TGI [27] | TGI [28] | TGI [29] | TGI [30] | TGI [31] | TGI [32] | TGI [33] | TGI [57] | TGI [34] | TGI [35] | TGI [36] | TGI [37] | TGI [38] | TGI [39] | TGI [40] | TGI [41] | TGI [42] | TGI [43] | TGI [44] | TGI [45] | TGI [46] | TGI [47] | TGI [48] | TGI [49] | TGI [50] | TGI [51] | TGI [52] | TGI [53] | TGI [54]

O=C1NC(=NCc2c(Cl)cccc2Cl)S/C1=C\c1ccc2ncccc2c1
> 24 µM: TGI [34]
20.2 µM: TGI [21]
21.1 µM: TGI [9]
24.5 µM: TGI [30]
inactive: GI50 [1] > 23.3 µM | GI50 [2] 9.64 µM | GI50 [3] 11 µM | GI50 [4] 8.17 µM | GI50 [5] 10.2 µM | GI50 [6] 6.05 µM | GI50 [7] 10.6 µM | GI50 [8] 11.3 µM | GI50 [9] 4.72 µM | GI50 [10] 8.22 µM | GI50 [11] 24.9 µM | GI50 [12] 3.14 µM | GI50 [13] > 19.5 µM | GI50 [14] 8.91 µM | GI50 [15] > 13.7 µM | GI50 [16] 9.24 µM | GI50 [17] 14.7 µM | GI50 [18] 3.99 µM | GI50 [19] > 22.9 µM | GI50 [20] 13.4 µM | GI50 [21] 4.25 µM | GI50 [55] 7.03 µM | GI50 [22] 6.61 µM | GI50 [23] 16 µM | GI50 [24] 12 µM | GI50 [25] 6.15 µM | GI50 [56] 1.14 µM | GI50 [27] 12.9 µM | GI50 [28] 7.53 µM | GI50 [29] 9.79 µM | GI50 [30] 9.12 µM | GI50 [31] 13.1 µM | GI50 [32] 4.47 µM | GI50 [33] 3.59 µM | GI50 [57] 9.29 µM | GI50 [34] 6.53 µM | GI50 [35] 16.1 µM | GI50 [36] > 12.1 µM | GI50 [37] 14.1 µM | GI50 [38] 13.7 µM | GI50 [39] 6.24 µM | GI50 [40] 16.3 µM | GI50 [41] 6.3 µM | GI50 [42] 10.6 µM | GI50 [43] 8.11 µM | GI50 [44] 5.35 µM | GI50 [45] 8.78 µM | GI50 [46] 13.9 µM | GI50 [47] > 25 µM | GI50 [48] 9.19 µM | GI50 [49] 8.31 µM | GI50 [50] 10.6 µM | GI50 [51] 4.85 µM | GI50 [52] 11.6 µM | GI50 [53] 15.9 µM | GI50 [54] 6.71 µM
10.7 µM: TGI [33]
8.77 µM: TGI [18]
> 22.9 µM: TGI [12]
> 24.2 µM: TGI [6]
> 19.9 µM: TGI [55]
> 25 µM: TGI [1] | TGI [2] | TGI [3] | TGI [4] | TGI [5] | TGI [7] | TGI [8] | TGI [10] | TGI [11] | TGI [13] | TGI [14] | TGI [15] | TGI [16] | TGI [17] | TGI [19] | TGI [20] | TGI [22] | TGI [23] | TGI [24] | TGI [25] | TGI [56] | TGI [27] | TGI [28] | TGI [29] | TGI [31] | TGI [32] | TGI [57] | TGI [35] | TGI [36] | TGI [37] | TGI [38] | TGI [39] | TGI [40] | TGI [41] | TGI [42] | TGI [43] | TGI [44] | TGI [46] | TGI [47] | TGI [48] | TGI [49] | TGI [50] | TGI [51] | TGI [52] | TGI [53] | TGI [54]
> 21.1 µM: TGI [45]
